The assay concerns the target human APJ receptor (Homo sapiens (Human), UniProt P35414). The assay can be described thus: [35S]GTPγS binding assay on membranes from CHO cells stably expressing human APJ receptor. To be noted: [35S]GTPγS SPA, read-out: Activity hAPJ SPA EC50 IP. It counts as biochemical. In short, it runs like this: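 Membranes from CHO cells stably expressing FLAG-tagged human APJ were incubated with [35S]GTPγS in buffer with optimized GDP, MgCl2 and NaCl, 90 min at RT. EC50 values derived by non-linear regression, averaged over several independent experiments.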
(In general: Binding of GTPγS marks nucleotide exchange on a G protein.)
Sequence of human APJ receptor (P35414 whole entry): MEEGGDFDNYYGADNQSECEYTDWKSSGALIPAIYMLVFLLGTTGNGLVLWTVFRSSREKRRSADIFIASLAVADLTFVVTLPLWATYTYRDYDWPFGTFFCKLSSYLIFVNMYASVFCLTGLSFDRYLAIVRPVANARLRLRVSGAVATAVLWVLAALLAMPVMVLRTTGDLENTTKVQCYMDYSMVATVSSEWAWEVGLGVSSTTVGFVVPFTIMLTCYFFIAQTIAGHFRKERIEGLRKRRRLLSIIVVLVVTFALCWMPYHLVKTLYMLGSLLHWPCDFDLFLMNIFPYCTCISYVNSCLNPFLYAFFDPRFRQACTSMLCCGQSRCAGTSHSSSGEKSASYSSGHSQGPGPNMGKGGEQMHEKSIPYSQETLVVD
In general, EC50 refers to the concentration giving half of the maximal effect. As to `COc1ncnc(OC)c1-n1c(NS(=O)(=O)[C@@H](C)[C@H](OC)c2ncc(Cl)cn2)nnc1[C@H]1CC[C@@H](C(F)(F)F)CC1` (single isomer, unassigned) [Example 173.0, (1R,2S)-1-(5-chloropyrimidin-2-yl)-N-(4-(4,6-dimethoxypyrimidin-5-yl)-5-((1s,4R)-4-(trifluoromethyl)cyclohexyl)-4H-1,2,4-triazol-3-yl)-1-methoxypropane-2-sulfonamide or (1R,2S)-1-(5-chloropyrimidin-2-yl)-N-(4-(4,6-dimethoxypyrimidin-5-yl)-5-((1r,4S)-4-(trifluoromethyl)cyclohexyl)-4H-1,2,4-triazol-3-yl)-1-methoxypropane-2-sulfonamide], the EC50 was found to be 13 nM. To `COc1ncnc(OC)c1-n1c(NS(=O)(=O)[C@@H](C)[C@H](OC)c2ncc(Cl)cn2)nnc1[C@H]1CC[C@@H](OC)CC1` (single isomer, unassigned) [Example 174.0, (1R,2S)-1-(5-chloropyrimidin-2-yl)-N-(4-(4,6-dimethoxypyrimidin-5-yl)-5-((1s,4R)-4-methoxycyclohexyl)-4H-1,2,4-triazol-3-yl)-1-methoxypropane-2-sulfonamide or (1R,2S)-1-(5-chloropyrimidin-2-yl)-N-(4-(4,6-dimethoxypyrimidin-5-yl)-5-((1r,4S)-4-methoxycyclohexyl)-4H-1,2,4-triazol-3-yl)-1-methoxypropane-2-sulfonamide] belongs 1200 nM. To `COc1ncnc(OC)c1-n1c(NS(=O)(=O)[C@@H](C)[C@H](OC)c2ncc(Cl)cn2)nnc1[C@H]1CC[C@@H](F)CC1` (single isomer, unassigned) [Example 175.0, (1R,2S)-1-(5-chloropyrimidin-2-yl)-N-(4-(4,6-dimethoxypyrimidin-5-yl)-5-((1s,4R)-4-fluorocyclohexyl)-4H-1,2,4-triazol-3-yl)-1-methoxypropane-2-sulfonamide or (1R,2S)-1-(5-chloropyrimidin-2-yl)-N-(4-(4,6-dimethoxypyrimidin-5-yl)-5-((1r,4S)-4-fluorocyclohexyl)-4H-1,2,4-triazol-3-yl)-1-methoxypropane-2-sulfonamide] belongs 59 nM. Turning to `COc1ncnc(OC)c1-n1c(NS(=O)(=O)[C@@H](C)[C@H](OC)c2ncc(Cl)cn2)nnc1[C@H]1CC[C@@H](F)CC1` (single isomer, unassigned) [Example 176.0, (1R,2S)-1-(5-chloropyrimidin-2-yl)-N-(4-(4,6-dimethoxypyrimidin-5-yl)-5-((1s,4R)-4-fluorocyclohexyl)-4H-1,2,4-triazol-3-yl)-1-methoxypropane-2-sulfonamide or (1R,2S)-1-(5-chloropyrimidin-2-yl)-N-(4-(4,6-dimethoxypyrimidin-5-yl)-5-((1r,4S)-4-fluorocyclohexyl)-4H-1,2,4-triazol-3-yl)-1-methoxypropane-2-sulfonamide], the EC50 was 17 nM. To `COc1ncnc(OC)c1-n1c(NS(=O)(=O)[C@@H](C)[C@H](OC)c2ncc(Cl)cn2)nnc1[C@H]1C[C@@H](C(F)(F)F)C1` (single isomer, unassigned) [Example 177.0, (1R,2S)-1-(5-chloropyrimidin-2-yl)-N-(4-(4,6-dimethoxypyrimidin-5-yl)-5-((1s,3R)-3-(trifluoromethyl)cyclobutyl)-4H-1,2,4-triazol-3-yl)-1-methoxypropane-2-sulfonamide or (1R,2S)-1-(5-chloropyrimidin-2-yl)-N-(4-(4,6-dimethoxypyrimidin-5-yl)-5-((1r,3S)-3-(trifluoromethyl)cyclobutyl)-4H-1,2,4-triazol-3-yl)-1-methoxypropane-2-sulfonamide] belongs 23 nM; to `COc1ncnc(OC)c1-n1c(NS(=O)(=O)[C@@H](C)[C@H](OC)c2ncc(Cl)cn2)nnc1[C@H]1C[C@@H](C(F)(F)F)C1` (single isomer, unassigned) [Example 178.0, (1R,2S)-1-(5-chloropyrimidin-2-yl)-N-(4-(4,6-dimethoxypyrimidin-5-yl)-5-((1s,3R)-3-(trifluoromethyl)cyclobutyl)-4H-1,2,4-triazol-3-yl)-1-methoxypropane-2-sulfonamide or (1R,2S)-1-(5-chloropyrimidin-2-yl)-N-(4-(4,6-dimethoxypyrimidin-5-yl)-5-((1r,3S)-3-(trifluoromethyl)cyclobutyl)-4H-1,2,4-triazol-3-yl)-1-methoxypropane-2-sulfonamide], 6.5 nM; to `COc1ncnc(OC)c1-n1c(NS(=O)(=O)[C@@H](C)[C@H](OC)c2ncc(Cl)cn2)nnc1[C@@H]1CC[C@@H]1F` (single isomer, unassigned) [Example 179.0, (1R,2S)-1-(5-chloropyrimidin-2-yl)-N-(4-(4,6-dimethoxypyrimidin-5-yl)-5-((1S,2S)-2-fluorocyclobutyl)-4H-1,2,4-triazol-3-yl)-1-methoxypropane-2-sulfonamide or (1R,2S)-1-(5-chloropyrimidin-2-yl)-N-(4-(4,6-dimethoxypyrimidin-5-yl)-5-((1R,2R)-2-fluorocyclobutyl)-4H-1,2,4-triazol-3-yl)-1-methoxypropane-2-sulfonamide], 46 nM. To `COc1ncnc(OC)c1-n1c(NS(=O)(=O)[C@@H](C)[C@H](OC)c2ncc(Cl)cn2)nnc1[C@@H]1CC[C@@H]1F` (single isomer, unassigned) [Example 180.0, (1R,2S)-1-(5-chloropyrimidin-2-yl)-N-(4-(4,6-dimethoxypyrimidin-5-yl)-5-((1S,2S)-2-fluorocyclobutyl)-4H-1,2,4-triazol-3-yl)-1-methoxypropane-2-sulfonamide or (1R,2S)-1-(5-chloropyrimidin-2-yl)-N-(4-(4,6-dimethoxypyrimidin-5-yl)-5-((1R,2R)-2-fluorocyclobutyl)-4H-1,2,4-triazol-3-yl)-1-methoxypropane-2-sulfonamide] belongs 24 nM.

`COc1ncnc(OC)c1-n1c(NS(=O)(=O)[C@@H](C)[C@H](OC)c2ncc(Cl)cn2)nnc1[C@H]1CC[C@@H]1F` (single isomer, unassigned) [Example 181.0, (1R,2S)-1-(5-chloropyrimidin-2-yl)-N-(4-(4,6-dimethoxypyrimidin-5-yl)-5-((1R,2S)-2-fluorocyclobutyl)-4H-1,2,4-triazol-3-yl)-1-methoxypropane-2-sulfonamide or (1R,2S)-1-(5-chloropyrimidin-2-yl)-N-(4-(4,6-dimethoxypyrimidin-5-yl)-5-((1S,2R)-2-fluorocyclobutyl)-4H-1,2,4-triazol-3-yl)-1-methoxypropane-2-sulfonamide]: the EC50 was 32 nM.

In the case of `COc1ncnc(OC)c1-n1c(NS(=O)(=O)[C@@H](C)[C@H](OC)c2ncc(Cl)cn2)nnc1[C@H]1CC[C@@H]1F` (single isomer, unassigned) [Example 182.0, (1R,2S)-1-(5-chloropyrimidin-2-yl)-N-(4-(4,6-dimethoxypyrimidin-5-yl)-5-((1R,2S)-2-fluorocyclobutyl)-4H-1,2,4-triazol-3-yl)-1-methoxypropane-2-sulfonamide or (1R,2S)-1-(5-chloropyrimidin-2-yl)-N-(4-(4,6-dimethoxypyrimidin-5-yl)-5-((1S,2R)-2-fluorocyclobutyl)-4H-1,2,4-triazol-3-yl)-1-methoxypropane-2-sulfonamide], the EC50 stood at 10 nM.

For `COc1ncnc(OC)c1-n1c(NS(=O)(=O)[C@@H](C)[C@H](OC)c2ncc(Cl)cn2)nnc1[C@H]1CC[C@@H]1C` (single isomer, unassigned) [Example 187.0, (1R,2S)-1-(5-chloropyrimidin-2-yl)-N-(4-(4,6-dimethoxypyrimidin-5-yl)-5-((1S,2S)-2-methylcyclobutyl)-4H-1,2,4-triazol-3-yl)-1-methoxypropane-2-sulfonamide or (1R,2S)-1-(5-chloropyrimidin-2-yl)-N-(4-(4,6-dimethoxypyrimidin-5-yl)-5-((1R,2R)-2-methylcyclobutyl)-4H-1,2,4-triazol-3-yl)-1-methoxypropane-2-sulfonamide], the EC50 came to 8.8 nM. To `COc1ncnc(OC)c1-n1c(NS(=O)(=O)[C@@H](C)[C@H](OC)c2ncc(Cl)cn2)nnc1[C@H]1CC[C@H]1C` (single isomer, unassigned) [Example 188.0, (1R,2S)-1-(5-chloropyrimidin-2-yl)-N-(4-(4,6-dimethoxypyrimidin-5-yl)-5-((1S,2R)-2-methylcyclobutyl)-4H-1,2,4-triazol-3-yl)-1-methoxypropane-2-sulfonamide or (1R,2S)-1-(5-chloropyrimidin-2-yl)-N-(4-(4,6-dimethoxypyrimidin-5-yl)-5-((1R,2S)-2-methylcyclobutyl)-4H-1,2,4-triazol-3-yl)-1-methoxypropane-2-sulfonamide] belongs 14 nM; to `COc1cccc(OC)c1-n1c(NS(=O)(=O)[C@@H](C)[C@H](OC)c2ncc(C)cn2)nnc1[C@H]1C[C@H](Cl)C1` (single isomer, unassigned) [Example 191.0, (1R,2S)-N-(5-((1r,3S)-3-chlorocyclobutyl)-4-(2,6-dimethoxyphenyl)-4H-1,2,4-triazol-3-yl)-1-methoxy-1-(5-methylpyrimidin-2-yl)propane-2-sulfonamide or (1R,2S)-N-(5-((1s,3R)-3-chlorocyclobutyl)-4-(2,6-dimethoxyphenyl)-4H-1,2,4-triazol-3-yl)-1-methoxy-1-(5-methylpyrimidin-2-yl)propane-2-sulfonamide], 7.5 nM. As to `COc1cccc(OC)c1-n1c(NS(=O)(=O)[C@@H](C)[C@H](OC)c2ncc(C)cn2)nnc1[C@H]1C[C@H](Cl)C1` (single isomer, unassigned) [Example 192.0, (1R,2S)-N-(5-((1r,3S)-3-chlorocyclobutyl)-4-(2,6-dimethoxyphenyl)-4H-1,2,4-triazol-3-yl)-1-methoxy-1-(5-methylpyrimidin-2-yl)propane-2-sulfonamide or (1R,2S)-N-(5-((1s,3R)-3-chlorocyclobutyl)-4-(2,6-dimethoxyphenyl)-4H-1,2,4-triazol-3-yl)-1-methoxy-1-(5-methylpyrimidin-2-yl)propane-2-sulfonamide], the half-maximal effective concentration (EC50) came to 2.9 nM.

These data come from patent publication US11020395B2, “Cycloalkyl substituted triazole compounds as agonists of the APJ receptor” (AMGEN INC., priority 2016, dated 2021).
